In patent US11445724B2, “Insecticidal compounds” (SYNGENTA PARTICIPATIONS AG, priority 2013, dated 2022):

Tests used:
Format in all cases: in vivo
[1] = tested on: Thrips tabaci (Onion thrips); test: Thrips tabaci (Onion thrips) mortality, sprayed sunflower leaf discs; details: foliar, 168 h, 200 ppm spray on sunflower leaf discs, mixed ages, mortality after 7 days
[2] = tested on: Diabrotica balteata (Corn root worm); test: Diabrotica balteata (Corn root worm) larval mortality, artificial diet in 24-well MTP; details: 120 h, application rate 200 ppm (concentration in well 18 ppm), L2 larvae, larval mortality after 5 days
[3] = tested on: Plutella xylostella (Diamond back moth); test: Plutella xylostella (Diamond back moth) larval mortality, artificial diet in 24-well MTP; details: 144 h, application rate 200 ppm (concentration in well 18 ppm), L2 larvae, larval mortality after 6 days
[4] = tested on: Myzus persicae (Green peach aphid); test: Myzus persicae (Green peach aphid) mortality, sprayed sunflower leaf discs; details: foliar, 144 h, 200 ppm spray on sunflower leaf discs, mixed ages, mortality 6 DAT
[5] = tested on: Myzus persicae (Green peach aphid); test: Myzus persicae (Green peach aphid) mortality, test compounds mixed with Sucrose solution under Parafilm; details: 120 h, 12.5 ppm in Sucrose solution, infested pea seedlings on Parafilm, mortality 5 days after infestation
[6] = tested on: Tetranychus urticae (Two-spotted spider mite); test: Tetranychus urticae (Two-spotted spider mite) mortality, sprayed bean leaf discs; details: foliar, 192 h, 200 ppm spray on bean leaf discs, mixed ages, egg, larval and adult mortality after 8 days
[7] = tested on: Spodoptera littoralis (Egyptian cotton leafworm); test: Spodoptera littoralis (Egyptian cotton leafworm) mortality, sprayed cotton leaf discs; details: foliar, 72 h, 200 ppm spray on cotton leaf discs, L1 larvae, mortality 3 DAT

COc1c(NC(=O)c2ccc(C#N)cc2)cccc1C(=O)Nc1c(Br)cc(C(F)(C(F)(F)F)C(F)(F)F)cc1OC(F)F [Compound 6]
≥ 80%: pest or weed control at 200 ppm [1] | pest or weed control at 200 ppm [2] | pest or weed control at 200 ppm [3] | pest or weed control at 200 ppm [4] | pest or weed control at 12.5 ppm [5] | pest or weed control at 200 ppm [6] | pest or weed control at 200 ppm [7]

CCN(C(=O)c1ccc(C#N)cc1)c1cccc(C(=O)Nc2c(Br)cc(C(F)(C(F)(F)F)C(F)(F)F)cc2OC(F)F)c1OC [Compound 9]
≥ 80%: pest or weed control at 200 ppm [1] | pest or weed control at 200 ppm [2] | pest or weed control at 200 ppm [3] | pest or weed control at 200 ppm [4] | pest or weed control at 12.5 ppm [5] | pest or weed control at 200 ppm [6] | pest or weed control at 200 ppm [7]

CCN(C(=O)c1ccc(C#N)cc1)c1cccc(C(=O)Nc2c(Br)cc(C(F)(C(F)(F)F)C(F)(F)F)cc2OC(F)F)c1F [Compound 10]
≥ 80%: pest or weed control at 200 ppm [1] | pest or weed control at 200 ppm [2] | pest or weed control at 200 ppm [3] | pest or weed control at 200 ppm [4] | pest or weed control at 12.5 ppm [5] | pest or weed control at 200 ppm [6] | pest or weed control at 200 ppm [7]

CCN(C(=O)c1cc[n+]([O-])cc1)c1cccc(C(=O)Nc2c(Br)cc(C(F)(C(F)(F)F)C(F)(F)F)cc2OC(F)F)c1F [Compound 11, N-[3-[[2-bromo-6-(difluoromethoxy)-4-[1,2,2,2-tetrafluoro-1-(trifluoromethyl)ethyl]phenyl]carbamoyl]-2-fluoro-phenyl]-N-ethyl-1-oxido-pyridin-1-ium-4-carboxamide]
≥ 80%: pest or weed control at 200 ppm [1] | pest or weed control at 200 ppm [2] | pest or weed control at 200 ppm [3] | pest or weed control at 200 ppm [4] | pest or weed control at 12.5 ppm [5] | pest or weed control at 200 ppm [6] | pest or weed control at 200 ppm [7]

CCN(C(=O)c1cc[n+]([O-])cc1)c1cccc(C(=O)Nc2c(Br)cc(C(F)(C(F)(F)F)C(F)(F)F)cc2OC(F)F)c1OC [Compound 12]
≥ 80%: pest or weed control at 200 ppm [1] | pest or weed control at 200 ppm [2] | pest or weed control at 200 ppm [3] | pest or weed control at 200 ppm [4] | pest or weed control at 12.5 ppm [5] | pest or weed control at 200 ppm [6] | pest or weed control at 200 ppm [7]

N#Cc1ccc(C(=O)Nc2cccc(C(=O)Nc3c(Cl)cc(C(F)(C(F)(F)F)C(F)(F)F)cc3OC(F)F)c2F)cc1 [Compound 13]
≥ 80%: pest or weed control at 200 ppm [1] | pest or weed control at 200 ppm [2] | pest or weed control at 200 ppm [3] | pest or weed control at 200 ppm [4] | pest or weed control at 12.5 ppm [5] | pest or weed control at 200 ppm [6] | pest or weed control at 200 ppm [7]

COc1c(NC(=O)c2ccc(C#N)cc2)cccc1C(=O)Nc1c(Cl)cc(C(F)(C(F)(F)F)C(F)(F)F)cc1OC(F)F [Compound 14, N-[2-chloro-6-(difluoromethoxy)-4-[1,2,2,2-tetrafluoro-1-(trifluoromethyl)ethyl]phenyl]-3-[(4-cyanobenzoyl)amino]-2-methoxy-benzamide]
≥ 80%: pest or weed control at 200 ppm [1] | pest or weed control at 200 ppm [2] | pest or weed control at 200 ppm [3] | pest or weed control at 200 ppm [4] | pest or weed control at 12.5 ppm [5] | pest or weed control at 200 ppm [6] | pest or weed control at 200 ppm [7]

O=C(Nc1cccc(C(=O)Nc2c(Cl)cc(C(F)(C(F)(F)F)C(F)(F)F)cc2OC(F)F)c1F)c1ccncc1 [Compound 15]
≥ 80%: pest or weed control at 200 ppm [1] | pest or weed control at 200 ppm [2] | pest or weed control at 200 ppm [3] | pest or weed control at 200 ppm [4] | pest or weed control at 12.5 ppm [5] | pest or weed control at 200 ppm [6] | pest or weed control at 200 ppm [7]

COc1c(NC(=O)c2ccncc2)cccc1C(=O)Nc1c(Cl)cc(C(F)(C(F)(F)F)C(F)(F)F)cc1OC(F)F [Compound 16]
≥ 80%: pest or weed control at 200 ppm [1] | pest or weed control at 200 ppm [2] | pest or weed control at 200 ppm [3] | pest or weed control at 200 ppm [4] | pest or weed control at 12.5 ppm [5] | pest or weed control at 200 ppm [6] | pest or weed control at 200 ppm [7]

CCN(C(=O)c1ccc(C#N)cc1)c1cccc(C(=O)Nc2c(Cl)cc(C(F)(C(F)(F)F)C(F)(F)F)cc2OC(F)F)c1F [Compound 17]
≥ 80%: pest or weed control at 200 ppm [1] | pest or weed control at 200 ppm [2] | pest or weed control at 200 ppm [3] | pest or weed control at 200 ppm [4] | pest or weed control at 12.5 ppm [5] | pest or weed control at 200 ppm [6] | pest or weed control at 200 ppm [7]

CCN(C(=O)c1ccc(C#N)cc1)c1cccc(C(=O)Nc2c(Cl)cc(C(F)(C(F)(F)F)C(F)(F)F)cc2OC(F)F)c1OC [Compound 18]
≥ 80%: pest or weed control at 200 ppm [1] | pest or weed control at 200 ppm [2] | pest or weed control at 200 ppm [3] | pest or weed control at 200 ppm [4] | pest or weed control at 12.5 ppm [5] | pest or weed control at 200 ppm [6] | pest or weed control at 200 ppm [7]

CCN(C(=O)c1ccncc1)c1cccc(C(=O)Nc2c(Cl)cc(C(F)(C(F)(F)F)C(F)(F)F)cc2OC(F)F)c1F [Compound 19]
≥ 80%: pest or weed control at 200 ppm [1] | pest or weed control at 200 ppm [2] | pest or weed control at 200 ppm [3] | pest or weed control at 200 ppm [4] | pest or weed control at 12.5 ppm [5] | pest or weed control at 200 ppm [6] | pest or weed control at 200 ppm [7]

CCN(C(=O)c1ccncc1)c1cccc(C(=O)Nc2c(Cl)cc(C(F)(C(F)(F)F)C(F)(F)F)cc2OC(F)F)c1OC [Compound 20]
≥ 80%: pest or weed control at 200 ppm [1] | pest or weed control at 200 ppm [2] | pest or weed control at 200 ppm [3] | pest or weed control at 200 ppm [4] | pest or weed control at 12.5 ppm [5] | pest or weed control at 200 ppm [6] | pest or weed control at 200 ppm [7]

O=C(Nc1cccc(C(=O)Nc2c(Br)cc(C(F)(C(F)(F)F)C(F)(F)F)cc2OC(F)F)c1F)c1ccccc1Cl [Compound 21]
≥ 80%: pest or weed control at 200 ppm [1] | pest or weed control at 200 ppm [2] | pest or weed control at 200 ppm [3] | pest or weed control at 200 ppm [4] | pest or weed control at 12.5 ppm [5] | pest or weed control at 200 ppm [6] | pest or weed control at 200 ppm [7]

O=C(Nc1cccc(C(=O)Nc2c(Br)cc(C(F)(C(F)(F)F)C(F)(F)F)cc2OC(F)F)c1F)c1ccc([N+](=O)[O-])cc1 [Compound 22]
≥ 80%: pest or weed control at 200 ppm [1] | pest or weed control at 200 ppm [2] | pest or weed control at 200 ppm [3] | pest or weed control at 200 ppm [4] | pest or weed control at 12.5 ppm [5] | pest or weed control at 200 ppm [6] | pest or weed control at 200 ppm [7]

Cc1ccc(C(=O)Nc2cccc(C(=O)Nc3c(Br)cc(C(F)(C(F)(F)F)C(F)(F)F)cc3OC(F)F)c2F)cc1 [Compound 23]
≥ 80%: pest or weed control at 200 ppm [1] | pest or weed control at 200 ppm [2] | pest or weed control at 200 ppm [3] | pest or weed control at 200 ppm [4] | pest or weed control at 12.5 ppm [5] | pest or weed control at 200 ppm [6] | pest or weed control at 200 ppm [7]

O=C(Nc1cccc(C(=O)Nc2c(Br)cc(C(F)(C(F)(F)F)C(F)(F)F)cc2OC(F)F)c1F)c1cc(Cl)ccc1F [Compound 24]
≥ 80%: pest or weed control at 200 ppm [1] | pest or weed control at 200 ppm [2] | pest or weed control at 200 ppm [3] | pest or weed control at 200 ppm [4] | pest or weed control at 12.5 ppm [5] | pest or weed control at 200 ppm [6] | pest or weed control at 200 ppm [7]

O=C(Nc1cccc(C(=O)Nc2c(Br)cc(C(F)(C(F)(F)F)C(F)(F)F)cc2OC(F)F)c1F)c1ccc([N+](=O)[O-])cc1Cl [Compound 25]
≥ 80%: pest or weed control at 200 ppm [1] | pest or weed control at 200 ppm [2] | pest or weed control at 200 ppm [3] | pest or weed control at 200 ppm [4] | pest or weed control at 12.5 ppm [5] | pest or weed control at 200 ppm [6] | pest or weed control at 200 ppm [7]
